Calls of active or inactive are those of the source. The rule behind the calls is not given here.
Assay: LNCaP cell killing by flow cytometry event count, dose response, cytotoxicity control for prostate cell differentiation activator project (AID 1197)
Details: LNCaP cell loss, flow cytometry event count, 4 d; at 30 µM (top of the series)

Row | SMILES | event count (lower = more killing)
1 | O=C(CCN1C(=O)COc2ccccc21)NCCCN1CCN(c2ccc(F)cc2)CC1 | 279% (inactive)
2 | Cc1ccc(Nc2cc(=O)n(C3CCCCC3)c(=O)[nH]2)cc1C | 55.5% (inactive)
3 | CCn1c(=N)n(CC(O)COc2cccc(C)c2)c2ccccc21 (configuration not stated) | 275% (inactive)
4 | CN(C)CCCN1c2ccccc2CCc2ccc(Cl)cc21 | 32.2% (inactive)
5 | Cc1ccccc1-c1nc(CN2CCC(C(=O)NCCCN3CCOCC3)CC2)c(C)o1 | 109% (inactive)
6 | Cc1cccc(-c2nsc(SCC(=O)Nc3nccs3)n2)c1 | 296% (inactive)
7 | Cc1ccccc1-c1nc(CN2CCC(C(=O)NCCCN3CCCC3)CC2)c(C)o1 | 76.5% (inactive)
8 | CCCOc1ccccc1C1CC(=O)Nc2cc3c(cc21)OCO3 (configuration not stated) | 21.8% (inactive)
9 | O=C(Cn1cc2c(n1)CCCC2)NCCCN1CCN(c2ccccc2F)CC1 | 333% (inactive)
10 | COc1ccc(CCn2c(=N)c(C(=O)NCc3ccco3)cc3c(=O)n4ccccc4nc32)cc1 | 37.8% (inactive)
11 | CCN(CC)CCNC(=O)c1cc2c(-c3ccc(Cl)cc3)nn(C)c2s1 | 140% (inactive)
12 | CN(CCNC(=O)C1CC(=O)N(c2ccc(F)c(Cl)c2)C1)Cc1ccccc1 (configuration not stated) | 343% (inactive)
13 | COc1ccc(N2CCN(CCCNC(=O)CCCn3c(=O)[nH]c4ccsc4c3=O)CC2)cc1 | 175% (inactive)
14 | Cc1ccc2c(c1)-c1c(cnn1CC(=O)Nc1ccccc1N1CCN(C)CC1)CO2 | 163% (inactive)
15 | CCOc1ccc(NC(=O)COc2nsnc2N2CCCCC2)cc1 | 160% (inactive)
16 | CN1CCN(c2cc3c(c4c2[nH]c2ccccc24)C(=O)CC(C)(C)C3)CC1 | 48.8% (inactive)
17 | Cc1cc(N2CCN(C)CC2)nc2ccc(NC(=O)c3ccc(Br)o3)cc12 | 422% (inactive)
18 | CN(CC(O)COc1ccc(OCC(O)CN(C)C2CCCCC2)cc1)C1CCCCC1 (configuration not stated) | 126% (inactive)
19 | O=c1cc(-c2ccccc2)[nH]c2ccccc12 | 83.8% (inactive)
20 | Cc1oc(-c2ccc(Cl)cc2)nc1CN1CCC(C(=O)N2CCN(Cc3ccccc3)CC2)CC1 | 91.8% (inactive)
21 | CCN(CC)CCNC(=O)c1ccc(N2CCCCC2)c(NS(=O)(=O)c2ccc(C)cc2)c1 | 70.8% (inactive)

Row | SMILES | event count (lower = more killing)
22 | COc1ccc(Cc2nc(-c3ccc(-n4cccc4)cc3)no2)cc1OC | 104% (inactive)
23 | COc1ccc(-c2ccc(-c3noc(-c4ccccc4)n3)c(OC)n2)cc1 | 153% (inactive)
24 | O=C(NCCCN1CCN(c2cccc(Cl)c2)CC1)c1cccc(N2CCCC2=O)c1 | 305% (inactive)
25 | Cc1cc(N2CCN(C)CC2)nc2ccc(NC(=O)c3ccc4c(c3)OCO4)cc12 | 80.5% (inactive)
26 | Cn1c(C(=O)NCCCN2CCN(c3cccc(Cl)c3)CC2)cc2c(=O)n(C)c3ccccc3c21 | 137% (inactive)
27 | CCOC(=O)c1ccccc1NC(=O)Cn1c(-c2nonc2N)nc2ccccc21 | 116% (inactive)
28 | CCOC(=O)c1c(C)n(C)c2ccc(OCC(O)CNC(CC)CO)cc12 (configuration not stated) | 115% (inactive)
29 | COc1ccc(N2CCN(CCCNC(=O)CC3Oc4ccc(C)cc4NC3=O)CC2)cc1 (configuration not stated) | 343% (inactive)
30 | Oc1c(CN2CCCCC2)cc(COCc2ccccc2)c2cccnc12 | 137% (inactive)
31 | CCN1CCN(c2ncc(C(=O)Nc3cc(Cl)c(OC)cc3OC)c3ccccc23)CC1 | 208% (inactive)
32 | COC(=O)c1cc(-c2ccccc2)sc1NC(=O)c1cc(C)on1 | 394% (inactive)
33 | Clc1ccc(COC(Cn2ccnc2)c2ccc(Cl)cc2Cl)cc1 (configuration not stated) | 223% (inactive)
34 | O=C(NCCCN1CCN(c2ccc(F)cc2)CC1)c1cccc(N2CCCC2=O)c1 | 191% (inactive)
35 | Cc1cc(C)nc(N2CCC(C(=O)Nc3ccc(Oc4ccccc4)cc3)CC2)n1 | 170% (inactive)
36 | O=C(c1ccccc1)c1ccc(N2CCNCC2)cc1 | 236% (inactive)
37 | CCN1CCN(CCNC(=O)C2CCN(Cc3nc(-c4ccc(Cl)cc4)oc3C)CC2)CC1 | 83.2% (inactive)
38 | CCN(CC)CC(=O)Nc1ccc(-c2nc3cc(NC(=O)CN(CC)CC)ccc3o2)cc1 | 98.5% (inactive)
39 | CCCc1cc(-c2n[nH]c(C)c2-c2ccc(C(=O)OCC)o2)c(O)cc1O | 98.2% (inactive)
40 | CC(C)(C)c1ccc(C(O)CCCN2CCC(C(O)(c3ccccc3)c3ccccc3)CC2)cc1 (configuration not stated) | 23.5% (inactive)
41 | Cn1c(=O)[nH]c(=O)c2c1nc(Br)n2CCCSc1nc2ccccc2o1 | 150% (inactive)
42 | Cc1nc2ncnn2c(C)c1CCC(=O)NCCCN1CCN(c2cccc(Cl)c2)CC1 | 374% (inactive)

Row | SMILES | event count (lower = more killing)
43 | COc1cc2nc(N3CCN(C(=O)C4COc5ccccc5O4)CC3)nc(N)c2cc1OC (configuration not stated) | 104% (inactive)
44 | CCCS(=O)(=O)N1CCCC(C(=O)NCCCN2CCN(c3ccc(F)cc3)CC2)C1 (configuration not stated) | 238% (inactive)
45 | C[C@H]1CCC/C=C/C2C[C@H](O)CC2[C@H](O)/C=C/C(=O)O1 (some centres not stated) | 12.8% (inactive)
46 | CN(C)c1ccc(CNC2CC(C)(C)NC(C)(C)C2)cc1 | 284% (inactive)
47 | Cc1ccc(C)c(N2CCN(CCCNC(=O)Cn3cc4c(n3)CCCCC4)CC2)c1 | 71.8% (inactive)
48 | CCOc1ccccc1NC(=O)c1nc[nH]c1C(=O)Nc1ccccc1OCC | 257% (inactive)
49 | CCOc1cccc2cc(-c3cn4cc(C)ccc4n3)c(=O)oc12 | 76.2% (inactive)
50 | CCn1c(=O)cc(SCC(=O)NCCN2CCN(Cc3ccccc3)CC2)c2ccccc21 | 306% (inactive)
51 | COc1ccc(N2CCN(CCCNC(=O)c3cc4sccc4n3C)CC2)cc1 | 282% (inactive)
52 | Cc1ccccc1-c1nc(CN2CCC(C(=O)NCc3cccnc3)CC2)c(C)o1 | 295% (inactive)
53 | Nc1ccc(-n2ccnc2)cc1 | 282% (inactive)
54 | Cc1ccccc1-c1nc(CN2CCCC(C(=O)NCCCN3CCOCC3)C2)c(C)o1 (configuration not stated) | 187% (inactive)
55 | Cn1c(=O)cc(SCC(=O)NCCCN2CCN(c3ccccc3F)CC2)c2ccccc21 | 258% (inactive)
56 | CC1CCCCN1CCNC(=O)c1cc2c(-c3ccccc3F)nn(C)c2s1 (configuration not stated) | 103% (inactive)
57 | CCN(CC)CCCNC(=O)c1cc2c(-c3ccc(Cl)cc3)nn(C)c2s1 | 22.2% (inactive)
58 | COc1ccccc1NC(=O)c1nc[nH]c1C(=O)Nc1ccccc1OC | 87.2% (inactive)
59 | Cc1ccc(CNc2nc3ccccc3n3nnnc23)cc1 | 128% (inactive)
60 | CCN1CCN(c2cc(C)c3cc(NC(=O)c4ccc(Br)o4)ccc3n2)CC1 | 55.2% (inactive)
61 | Cc1ccccc1-c1nc(CN2CCC(C(=O)NCCCN3CC(C)CC(C)C3)CC2)c(C)o1 (configuration not stated) | 108% (inactive)
62 | CC1CCCCN1CCNC(=O)c1ccc2c(=O)n(CCc3ccccc3)c(=O)[nH]c2c1 (configuration not stated) | 191% (inactive)

Source: PubChem BioAssay AID1197 (NMMLSC, 2008)
